Assay results taken from ChEMBL document CHEMBL1143095, “Discovery of [(3-bromo-7-cyano-2-naphthyl)(difluoro)methyl]phosphonic acid, a potent and orally active small molecule PTP1B inhibitor” (Bioorg Med Chem Lett, 2008).

Tests used:
[1] = target: T1, Receptor-type tyrosine-protein phosphatase C (Homo sapiens, UniProt P08575); experiment: Inhibition of CD45 by fluorescein diphosphate assay
T1 sequence (P08575 whole entry): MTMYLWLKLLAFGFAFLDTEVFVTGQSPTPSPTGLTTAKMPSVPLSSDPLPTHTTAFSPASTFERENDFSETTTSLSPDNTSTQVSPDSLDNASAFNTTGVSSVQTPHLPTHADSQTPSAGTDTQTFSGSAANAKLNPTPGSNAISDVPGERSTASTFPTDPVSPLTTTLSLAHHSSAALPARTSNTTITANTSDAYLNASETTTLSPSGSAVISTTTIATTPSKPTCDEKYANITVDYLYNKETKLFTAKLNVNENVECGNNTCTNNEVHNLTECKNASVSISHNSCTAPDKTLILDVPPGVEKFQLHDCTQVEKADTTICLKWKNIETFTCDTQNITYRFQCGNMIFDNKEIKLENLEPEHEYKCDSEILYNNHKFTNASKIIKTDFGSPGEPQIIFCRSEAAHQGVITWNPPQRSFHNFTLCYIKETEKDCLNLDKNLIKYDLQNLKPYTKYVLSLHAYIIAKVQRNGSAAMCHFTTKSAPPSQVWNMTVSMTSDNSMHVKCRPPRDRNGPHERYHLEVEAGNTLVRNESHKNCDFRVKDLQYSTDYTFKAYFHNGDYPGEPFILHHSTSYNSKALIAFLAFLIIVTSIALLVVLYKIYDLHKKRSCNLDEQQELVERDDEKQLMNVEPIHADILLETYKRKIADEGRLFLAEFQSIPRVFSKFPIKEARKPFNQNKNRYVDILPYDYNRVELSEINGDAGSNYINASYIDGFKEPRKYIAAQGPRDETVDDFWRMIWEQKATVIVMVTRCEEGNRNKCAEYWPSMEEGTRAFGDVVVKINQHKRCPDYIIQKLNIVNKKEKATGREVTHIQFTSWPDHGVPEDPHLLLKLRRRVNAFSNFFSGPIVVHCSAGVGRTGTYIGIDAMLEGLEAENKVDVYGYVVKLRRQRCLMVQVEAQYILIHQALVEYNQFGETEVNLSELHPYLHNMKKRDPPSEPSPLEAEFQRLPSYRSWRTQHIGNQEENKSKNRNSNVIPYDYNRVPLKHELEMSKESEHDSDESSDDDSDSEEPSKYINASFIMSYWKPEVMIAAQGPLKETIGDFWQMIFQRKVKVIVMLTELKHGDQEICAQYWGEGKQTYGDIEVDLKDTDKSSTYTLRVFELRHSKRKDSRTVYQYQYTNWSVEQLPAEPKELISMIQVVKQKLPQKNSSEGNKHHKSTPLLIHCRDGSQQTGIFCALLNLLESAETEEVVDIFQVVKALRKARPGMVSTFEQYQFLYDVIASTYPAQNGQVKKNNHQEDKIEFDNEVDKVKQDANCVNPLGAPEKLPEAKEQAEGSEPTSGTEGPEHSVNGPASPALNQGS

[2] = target: T2, Tyrosine-protein phosphatase non-receptor type 1 (Homo sapiens, UniProt P18031); experiment: Inhibition of PTP1B by fluorescein diphosphate assay
T2 sequence (P18031 whole entry): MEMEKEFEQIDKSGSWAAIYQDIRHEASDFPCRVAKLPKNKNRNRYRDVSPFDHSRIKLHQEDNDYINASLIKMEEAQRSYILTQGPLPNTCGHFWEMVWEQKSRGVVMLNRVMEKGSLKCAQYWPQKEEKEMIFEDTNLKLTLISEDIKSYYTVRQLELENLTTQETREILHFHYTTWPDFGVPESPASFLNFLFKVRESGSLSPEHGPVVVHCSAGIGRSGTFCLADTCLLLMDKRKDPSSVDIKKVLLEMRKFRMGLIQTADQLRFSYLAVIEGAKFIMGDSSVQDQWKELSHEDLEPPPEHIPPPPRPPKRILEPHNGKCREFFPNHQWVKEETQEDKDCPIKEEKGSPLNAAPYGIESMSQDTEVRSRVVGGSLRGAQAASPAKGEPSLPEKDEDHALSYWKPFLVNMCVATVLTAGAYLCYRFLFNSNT

[3] = Cmax in mouse plasma at 20 mg/kg, po after 2 hrs; assay type: ADME, organism-based; set-up: dose 20 mg/kg, route oral
[4] = Drug level in DIO mouse at 5 mg/kg, iv and 20 mg/kg, po after 24 hrs; assay type: ADME, organism-based; conditions: in vivo, read-out: Drug uptake
[5] = Clearance in rat at 5 mg/kg, iv and 20 mg/kg, po; assay type: ADME, organism-based; conditions: in vivo
[6] = Oral bioavailability in DIO mouse at 5 mg/kg, iv and 20 mg/kg, po; assay type: ADME, organism-based; conditions: in vivo
[7] = Elimination half life in rat at 5 mg/kg, iv and 20 mg/kg, po; assay type: ADME, organism-based; conditions: in vivo
[8] = Cmax in rat at 5 mg/kg, iv and 20 mg/kg, po; assay type: ADME, organism-based; conditions: in vivo
[9] = Clearance in Squirrel monkey at 5 mg/kg, iv and 10 mg/kg, po; assay type: ADME, organism-based, Saimiri sciureus; conditions: in vivo
[10] = Oral bioavailability in Squirrel monkey at 5 mg/kg, iv and 10 mg/kg, po; assay type: ADME, organism-based, Saimiri sciureus; conditions: in vivo
[11] = Cmax in DIO mouse at 5 mg/kg, iv and 20 mg/kg, po; assay type: ADME, organism-based; conditions: in vivo
[12] = Oral bioavailability in rat at 5 mg/kg, iv and 20 mg/kg, po; assay type: ADME, organism-based; conditions: in vivo
Mus musculus [13] = experiment: Inhibition of glucose excursion in DIO mouse glucose challenged 2 hrs before the test at 1 mg/kg by oral glucose tolerance test; assay type: functional
[14] = Cmax in Squirrel monkey at 5 mg/kg, iv and 10 mg/kg, po; assay type: ADME, organism-based, Saimiri sciureus; conditions: in vivo
Mus musculus [15] = experiment: Inhibition of glucose excursion in DIO mouse glucose challenged 2 hrs before the test at 3 mg/kg by oral glucose tolerance test; assay type: functional
Mus musculus [16] = experiment: Inhibition of glucose excursion in DIO mouse glucose challenged 2 hrs before the test at 10 mg/kg by oral glucose tolerance test; assay type: functional
[17] = Drug level in rat at 5 mg/kg, iv and 20 mg/kg, po after 24 hrs; assay type: ADME, organism-based; conditions: in vivo, read-out: Drug uptake
[18] = Drug level in Squirrel monkey at 5 mg/kg, iv and 10 mg/kg, po after 24 hrs; assay type: ADME, organism-based, Saimiri sciureus; conditions: in vivo, read-out: Drug uptake
[19] = Elimination half life in Squirrel monkey at 5 mg/kg, iv and 10 mg/kg, po; assay type: ADME, organism-based, Saimiri sciureus; conditions: in vivo
[20] = Elimination half life in DIO mouse at 5 mg/kg, iv and 20 mg/kg, po; assay type: ADME, organism-based; conditions: in vivo
Mus musculus [21] = species on record: Mus musculus; experiment: Inhibition of glucose excursion in DIO mouse glucose challenged 2 hrs before the oral glucose tolerance test; assay type: functional
[22] = Clearance in DIO mouse at 5 mg/kg, iv and 20 mg/kg, po; assay type: ADME, organism-based; conditions: in vivo
[23] = Cmax in C57BL/6 mouse plasma at 10 mg/kg; assay type: ADME, organism-based; set-up: dose 10 mg/kg
[24] = Elimination half life in rat plasma; assay type: ADME, organism-based
[25] = Oral bioavailability in rat; assay type: ADME, organism-based; conditions: in vivo
[26] = Cmax in rat plasma at 20 mg/kg; assay type: ADME, organism-based; set-up: dose 20 mg/kg

Row | IC50 [1] | IC50 [2] | Compound | also measured
1 | > 50 µM | 0.51 µM | COCc1ccc2cc(Br)c(C(F)(F)P(=O)(O)O)cc2c1 | –
2 | 26.8 µM | 0.09 µM | N#CCc1ccc2cc(Br)c(C(F)(F)P(=O)(O)O)cc2c1 | Cmax [3]: 6 µM
3 | > 50 µM | 1.5 µM | CC(=O)NCc1ccc2cc(Br)c(C(F)(F)P(=O)(O)O)cc2c1 | –
4 | > 50 µM | 1.3 µM | CS(=O)(=O)Cc1ccc2cc(Br)c(C(F)(F)P(=O)(O)O)cc2c1 | –
5 | > 50 µM | – | N#Cc1ccc2cc(Br)c(C(F)(F)P(=O)(O)O)cc2c1 | concentration at 24 h [4]: 9 µM; clearance [5]: 1.8 mL/h/kg; bioavailability [6]: 24%; half-life [7]: > 17 h; Cmax [8]: 75.6 µM; clearance [9]: 1.2 mL/h/kg; bioavailability [10]: 2%; Cmax [11]: 17.4 µM; bioavailability [12]: 4%; inhibition in vivo at 1 mg/kg (Mus musculus [13]): 60%; Cmax [14]: 24 µM; inhibition in vivo at 3 mg/kg (Mus musculus [15]): 80%; inhibition in vivo at 10 mg/kg (Mus musculus [16]): 100%; concentration at 24 h [17]: 45.3 µM; concentration at 24 h [18]: 19 µM; half-life [19]: > 30 h; half-life [20]: 6 h; ED50 (Mus musculus [21]): 0.8 mg/kg; clearance [22]: 42.6 mL/h/kg
6 | > 50 µM | 0.31 µM | N#Cc1ccc2cc(C(F)(F)P(=O)(O)O)c(Br)cc2c1 | –
7 | > 50 µM | 14 µM | Cc1ccc2cc(Br)c(C(F)(F)P(=O)(O)O)cc2n1 | half-life [24]: > 8 h; bioavailability [25]: 5%; Cmax [26]: 43.3 µM
8 | > 50 µM | 0.33 µM | Cc1ccc2cc(Br)c(C(F)(F)P(=O)(O)O)cc2c1 | –

Second part, the molecule before the results:

Row | Compound | IC50 [1] | IC50 [2] | also measured
9 | Cc1ccc2ccc(C(F)(F)P(=O)(O)O)cc2n1 | > 50 µM | > 50 µM | –
10 | NC(=O)c1ccc2cc(Br)c(C(F)(F)P(=O)(O)O)cc2n1 | > 50 µM | 0.25 µM | Cmax [23]: 0.3 µM
11 | O=P(O)(O)C(F)(F)c1cc2ccccc2cc1Br | – | – | Ki [2]: 179 µM
12 | O=C(NCc1ccccc1)c1ccc2cc(Br)c(C(F)(F)P(=O)(O)O)cc2n1 | > 50 µM | 0.045 µM | –
13 | O=C(Nc1cccc(F)c1)c1ccc2cc(Br)c(C(F)(F)P(=O)(O)O)cc2n1 | > 50 µM | 0.027 µM | –
14 | O=C(Nc1ccccc1)c1ccc2cc(Br)c(C(F)(F)P(=O)(O)O)cc2n1 | > 50 µM | 0.06 µM | –
15 | O=P(O)(O)C(F)(F)c1cc2nc(/C=C/c3ccccc3)ccc2cc1Br | > 50 µM | 0.16 µM | –
16 | CNC(=O)c1ccc2cc(Br)c(C(F)(F)P(=O)(O)O)cc2n1 | > 50 µM | 1.26 µM | –
17 | CC(Cc1ccc(C(F)(F)P(=O)(O)O)cc1)(c1ccccc1)n1nnc2ccccc21 (centres undefined) | 50 µM | 0.016 µM | –
18 | O=C(O)c1cccc(/C=C/c2ccc3cc(Br)c(C(F)(F)P(=O)(O)O)cc3n2)c1 | 37.8 µM | 0.007 µM | –
19 | O=C(c1ccccc1)C(Cc1ccc(C(F)(F)P(=O)(O)O)c(Br)c1)c1ccccc1 (centres undefined) | > 50 µM | – | –
